According to US4621145A, “Process for preparing 5-vinyl-2-pyrrolidinone and intermediates therefor” (Merrell Dow Pharmaceuticals Inc., priority 1982, dated 1986):

Legend:
GABA-T [1] = conditions: reported by Lippert et al. and Bouclier et al.; cited from earlier work
GABA-T enzyme = assay: Biological activity of 4-amino-5-hexenoic acid enantiomers; conditions: GABA-T inhibition
GABA-T [2] = assay: GABA-T activity in mice brain, test method of Jung et al., J. Neurochemistry; assay type: in vivo; conditions: 4 hours after injection
Description: (§1) The biochemical and pharmacological effects of 4-aminohex-5-ynoic acid are described in Jung et al., Biochem. and Biophys. Res. Comm., 67, 301 (1975); Jung et al., J. Neurochemistry, 28, 717 (1977); Jung et al., Biochemistry, 17, 2628 (1978); Bouclier et al., Eur. J. Biochem., 98, 363 (1979); Biochem. Pharmacology, 28, 1705 (1979); and Lippert et al., Brain Research Bull., 5, 375 (1980). […] For example, (R)-4-aminohex-5-ynoic acid gave the follow effects on GABA-T activity and GABA concentrations in mice brain using the test method of Jung et al., J. Neurochemistry, supra:
(§2) ^(a) 4 hours after injection of the test compound, i.p.

[3] = test system: GABA concentrations in mice brain; assay: GABA concentrations in mice brain, test method of Jung et al., J. Neurochemistry; assay type: in vivo; conditions: 4 hours after injection
Description: as §1, §2

GABA-T [4] = assay: Chronic oral experiment in rats: GABA-T activity in homogenates of brain minus the cortex; assay type: in vivo; conditions: oral daily 100 mg/kg, 24 hours after last dose
Procedure: (§3) In a chronic experiment, a group of five rats was given oral daily doses of 100 mg/kg of (R)-4-aminohex-5-ynoic acid. A separate group of animals was used as control. Twenty-four hours after the last dose, the animals were sacrificed and the cortex was dissected from the rest of the brain.

[5] = test system: GABA concentration in homogenates of the cortex; assay: Chronic oral experiment in rats: GABA concentration in homogenates of the cortex; assay type: in vivo; conditions: oral daily 100 mg/kg, 24 hours after last dose, vs controls
Procedure: as §3

[6] = parameters: species or system rats; conditions: rat, in vivo, po, 100 mg/kg
[7] = test system: convulsions and death, induced by mercaptopropionic acid; assay: Protection of mice against effects induced by mercaptopropionic acid; assay type: in vivo; conditions: mercaptopropionic acid 53 mg/kg i.p. 6 hours after
[8] = parameters: species or system mice; conditions: mouse, in vivo, ip, 400 mg/kg
GABA-T [9] = assay: Irreversible inhibition of GABA-T in vitro; assay type: biochemical
GABA-T [10] = assay: Irreversible inhibition of GABA-T in vivo
[11] = test system: γ-aminobutyric acid transaminase (GABA-T); conditions: background, U.S. Pat. No. 3,960,927 and literature; cited from earlier work
[12] = test system: level of γ-aminobutyric acid (GABA) in the CNS; conditions: background; cited from earlier work

C#C[C@@H](N)CCC(=O)O [(S)-4-aminohex-5-ynoic acid]
irreversible inhibition of GABA-T (reported as only active enantiomer) (GABA-T [1]): irreversibly inhibit GABA-T

C=C[C@@H](N)CCC(=O)O [(S)-4-amino-5-hexenoic acid, (S)-4-Amino-5-hexenoic acid]
biological activity of the enantiomer (GABA-T enzyme): biologically active

C#C[C@H](N)CCC(=O)O [(R)-4-aminohex-5-ynoic acid, (R)-4-Aminohex-5-ynoic acid]
% Inhibition of GABA-T (GABA-T [2]; 25 mg/kg i.p.): 31% | % Inhibition of GABA-T (GABA-T [2]; 50 mg/kg i.p.): 50% | % Inhibition of GABA-T (GABA-T [2]; 100 mg/kg i.p.): 66% | % Inhibition of GABA-T (GABA-T [2]; 200 mg/kg i.p.): 81% | GABA Concentration % Control ([3]; 25 mg/kg i.p.): 103 % Control | GABA Concentration % Control ([3]; 50 mg/kg i.p.): 125 % Control | GABA Concentration % Control ([3]; 100 mg/kg i.p.): 180 % Control | GABA Concentration % Control ([3]; 200 mg/kg i.p.): 275 % Control | GABA-T activity decrease as compared to controls (GABA-T [4]): 81% | GABA concentration in homogenates of the cortex [5]: approximately doubled | body weight effect [6]: lost body weight | course of body weight and hair loss effects [6]: appeared to disappear during the second week | hair loss [6]: lost hair on their backs | protection against convulsions and death induced by mercaptopropionic acid ([7]; 100 mg/kg i.p.): protect mice against convulsions and death | protection against running fits ([7]; 100 mg/kg i.p.): no protection against running fits | protection against convulsions and death induced by mercaptopropionic acid ([7]; 200 mg/kg i.p.): protect mice against convulsions and death | protection against running fits ([7]; 200 mg/kg i.p.): no protection against running fits | death [8]: dead | sedation [8]: produced sedation | time to sedation [8]: ≤ 30 min | irreversible inhibition of GABA-T (GABA-T [9]): irreversible inhibitor of GABA-T | irreversible inhibition of GABA-T (GABA-T [10]): irreversible inhibitor of GABA-T

C=C[C@H](N)CCC(=O)O [(R)-4-amino-5-hexenoic acid]
biological activity of the enantiomer (GABA-T enzyme): biologically inactive

C=CC(N)CCC(=O)O (stereo not drawn) [4-Amino-5-hexenoic acid]
irreversible inhibition of GABA-T [11]: irreversible inhibitor | increase of GABA level in the CNS [12]: capable of increasing the level of γ-aminobutyric acid (GABA) in the CNS
